Measurements reported in PubChem BioAssay AID504903 (Southern Research Specialized Biocontainment Screening …, 2011).
Calls of active or inactive are those of the source. The rule behind the calls is not given here.

Assays:
[1] = test system: M. tuberculosis H37Rv growth in 7H9 medium; assay: M. tuberculosis growth inhibition, dose response, H37Rv, 7H9 media, purified and synthesized compounds, set 5 (AID 504903); conditions: for IC50: measured here: M. tuberculosis growth IC50
[2] = as above; conditions: M. tuberculosis H37Rv growth in 7H9 medium; at 100 µM (top of the series)

| Structure (SMILES) | IC90 [1] [nM] | IC50 [1] [nM] | growth inhibition [2] |
| --- | --- | --- | --- |
| NC[C@H]1O[C@H](O[C@H]2[C@H](O)[C@@H](O[C@H]3O[C@H](CO)[C@@H](O)[C@H](N)[C@H]3O)[C@H](N)C[C@@H]2N)[C@H](O)[C@@H](O)[C@@H]1O | 2360 | 1140 |  |
| Cc1nc(SCC(=O)NC2CCCCC2)[nH]c(=O)c1C | 230 | < 10 |  |
| O=C(CSc1nccc(=O)[nH]1)NC1CCCCC1 |  |  | -5.41% (inactive) |
| Cc1cccc(-c2oc3ccc(-c4ccc5c(c4)OCO5)cc3c2C#Cc2cncn2C)c1 | 3030 | 2520 |  |
| CC(C)CCNC(=O)CSc1nc2ccccc2c(=O)[nH]1 | 120 | < 60 |  |
| COC(=O)c1ccc(CNc2c(N3CCCC3)c(=O)c2=O)cc1 |  |  | 23.6% (inactive) |
| CCC(Sc1nc2ccccc2c(=O)[nH]1)C(=O)NC1CCCCC1 (stereo not drawn) |  |  | -1.65% (inactive) |
| O=C(CSc1ccccn1)NC1CCCCC1 |  | > 95800 |  |
| CCC(Sc1nc2ccccc2c(=O)[nH]1)C(=O)Nc1cccc(OC)c1 (stereo not drawn) |  |  | -2.52% (inactive) |
| CC1CCN(C(=O)CSc2nc3ccccc3c(=O)[nH]2)CC1 |  |  | -3.58% (inactive) |
| Nc1c(C(=O)NC2CCCCC2)nsc1C(=O)OCC(=O)NC1CCCCC1 | 42400 | 1970 |  |
| O=C(CSc1ncccn1)NC1CCCCC1 |  |  | -3.3% (inactive) |
| NC(=O)CSc1nc2ccccc2c(=O)[nH]1 |  |  | 3.23% (inactive) |
| CO[C@H]1/C=C/O[C@@]2(C)Oc3c(C)c(O)c4c(O)c(c(C=NN5CCN(C)CC5)c(O)c4c3C2=O)NC(=O)/C(C)=C\C=C\[C@H](C)[C@H](O)[C@@H](C)[C@@H](O)[C@@H](C)[C@H](OC(C)=O)[C@@H]1C | 10 | < 10 |  |
| NNC(=O)c1ccncc1 | 320 | 190 |  |
| O=c1[nH]c(=S)[nH]c2ccccc12 |  |  | -4.57% (inactive) |
| CCOC(=O)CSc1nc(C)c(C)c(=O)[nH]1 |  |  | -4.51% (inactive) |
| COC(=O)C(Nc1nc(SCC(=O)NC2CCCCC2)nc2ccccc12)c1ccccc1 (stereo not drawn) |  |  | 0.4% (inactive) |
| COC(=O)C(C)Oc1ccc(Cc2ncc(C(F)(F)F)cc2Cl)cc1 (stereo not drawn) | 7660 | 3110 |  |
| CC1CCN(C(=O)C2CCN(c3nnc(-n4cccc4)s3)CC2)CC1 | 4660 | 2550 |  |
| CN[C@@H]1[C@H](O[C@H]2[C@H](O[C@H]3[C@H](O)[C@@H](O)[C@H](N=C(N)N)[C@@H](O)[C@@H]3N=C(N)N)O[C@@H](C)[C@]2(O)C=O)O[C@@H](CO)[C@H](O)[C@H]1O | 140 | 70 |  |
| Cc1nc(SCC(N)=O)[nH]c(=O)c1C |  |  | 1.58% (inactive) |
| Cc1c[nH]c(=S)[nH]c1=O |  |  | -1.72% (inactive) |

| Structure (SMILES) | IC90 [1] [nM] | IC50 [1] [nM] | growth inhibition [2] |
| --- | --- | --- | --- |
| O=C(CSc1nc2ccccc2c(=O)[nH]1)NCc1ccc(Cl)cc1 | 980 | 440 |  |
| O=C(CSc1nc2c(c(=O)[nH]1)CCC2)NC1CCCCC1 | < 70 | < 40 |  |
| COc1c(N2CCNC(C)C2)c(F)cc2c(=O)c(C(=O)O)cn(C3CC3)c12 (stereo not drawn) | 120 | 90 |  |
| Cc1nc(SCC(=O)NC2CCCC2)[nH]c(=O)c1C | 10500 | 4490 |  |
| Cc1ccc(NC(=O)CSc2nc3ccccc3c(=O)[nH]2)cc1Cl |  |  | -6.21% (inactive) |
| COc1cccc(NC(=O)CSc2nc3c(c(=O)[nH]2)CCC3)c1 |  |  | -9.73% (inactive) |
| NC(=O)c1cnccn1 |  |  | 0.23% (inactive) |
| COc1cccc(NC(=O)CSc2nc3ccccc3c(=O)[nH]2)c1 |  |  | -1.31% (inactive) |
| Cc1nc(SCc2ccccc2Cl)[nH]c(=O)c1C |  |  | -6.23% (inactive) |
| Cc1cccc(/C=C/C(=O)c2ccc([N+](=O)[O-])o2)c1 | 800 | 310 |  |
| CN1CCC(NC(=O)CSc2nc3ccccc3c(=O)[nH]2)CC1 |  |  | -7.75% (inactive) |
| CN(C)C(=O)CSc1nc2ccccc2c(=O)[nH]1 |  |  | -2.5% (inactive) |
| COc1ccc(NC(=O)CSc2nc3ccccc3c(=O)[nH]2)cc1 |  |  | 4.59% (inactive) |
| Cc1cc(=O)[nH]c(SCC(=O)NC2CCCCC2)n1 |  |  | 8.24% (inactive) |
| c1ccc(/N=C2\N=C(Nc3ccccn3)c3ccccc32)nc1 | 1330 | 750 |  |
| Cc1nc(SCC(=O)N(C)c2ccccc2)[nH]c(=O)c1C |  |  | -9.88% (inactive) |
| CNC(=O)CSc1nc2ccccc2c(=O)[nH]1 |  | 56200 |  |
| CCOC1OC(=O)C(Cl)=C1Nc1ccccc1C (stereo not drawn) | 5450 | 2900 |  |
| O=C(CSc1nc2ccccc2c(=O)[nH]1)NC1CCCC1 | 550 | 30 |  |
| O=C(CSc1nc2ccccc2c(=O)[nH]1)NC1CCCCC1 | 310 | 160 |  |
| Nc1cc(=O)[nH]c(SCC(=O)NC2CCCCC2)n1 |  |  | -2.55% (inactive) |
| Cc1[nH]c2ccccc2c1C(=O)COC(=O)c1ccc([N+](=O)[O-])s1 |  | > 50300 |  |
| O=C(CSc1nc2ccccc2c(=O)[nH]1)N1CCOCC1 |  |  | -3.23% (inactive) |

| Structure (SMILES) | IC90 [1] [nM] | IC50 [1] [nM] | growth inhibition [2] |
| --- | --- | --- | --- |
| CC(C)NC(=O)CSc1nc2ccccc2c(=O)[nH]1 | 18800 | 4770 |  |
| Cc1cc(=O)[nH]c(=S)[nH]1 |  |  | -8.51% (inactive) |
| CCSc1nc2ccccc2c(=O)[nH]1 |  |  | -4.06% (inactive) |
| CC[N+](C)(CC)CCCCOc1ccc2c(c1)C(=O)c1cc(OCCCC[N+](C)(CC)CC)ccc1-2 | 2450 | 1500 |  |
| CN(C(=O)CSc1nc2ccccc2c(=O)[nH]1)C1CCCCC1 |  |  | -0.89% (inactive) |
| O=C(CSc1nc2c(c(=O)[nH]1)CCCC2)NC1CCCCC1 | < 70 | < 30 |  |
| Cc1cc(Br)ccc1NC(=O)c1cnc(N2CCN(c3ccccn3)CC2)c2ccccc12 | 6160 | 680 |  |
| CCSc1nc(C)c(C)c(=O)[nH]1 |  |  | -1.81% (inactive) |
| CC(C)CCNC(=O)CSc1nc2c(c(=O)[nH]1)CCC2 | 1030 | 600 |  |
| Cc1nc(SCC(=O)NCCC(C)C)[nH]c(=O)c1C | 9790 | 4870 |  |
| Cc1cc(C)n2nc(N)c(N=Nc3ccccc3)c2n1 | 5540 | 3880 |  |
| Cn1c(SCC(=O)NC2CCCCC2)nc2ccccc2c1=O |  |  | -10.1% (inactive) |
| Cc1ccc(NC(=O)COC(=O)CCc2c[nH]c3ccccc23)cc1[N+](=O)[O-] | 3590 | 860 |  |
| Cc1[nH]c(=S)[nH]c(=O)c1C |  |  | -6.68% (inactive) |
| Cc1ccc(C(=O)N/N=C(/CC(=O)c2cccs2)C(F)(F)F)cc1 | 2940 | 1250 |  |
| CC(Sc1nc2ccccc2c(=O)[nH]1)C(=O)NC1CCCCC1 (stereo not drawn) |  |  | -8.54% (inactive) |
| Cc1cnc(SCC(=O)NC2CCCCC2)[nH]c1=O |  |  | -2.75% (inactive) |
| CC(C)N=c1cc2n(-c3ccc(Cl)cc3)c3ccccc3nc-2cc1Nc1ccc(Cl)cc1 | 310 | 10 |  |
| CCOc1ccc(-c2cc(C)[n+](CCc3ccc(OC)c(OC)c3)c(-c3ccc(OCC)cc3)c2)cc1 | 860 | 480 |  |
| CCCc1cc(C(N)=S)ccn1 |  | 6010 |  |
| CCC(Sc1nc2c(c(=O)[nH]1)CCC2)C(=O)Nc1cccc(OC)c1 (stereo not drawn) |  |  | 0.63% (inactive) |
| O=c1[nH]c(SCc2ccccc2Cl)nc2c1CCCC2 |  |  | -4.24% (inactive) |
